“Also recorded” adds a separate entry of the source.
How the values were obtained:
Cav2.2 channels = experiment: Calcium channel distribution by confocal indirect immunofluorescence in DRG neurons; type: cell-based, chicken; conditions: DRG neurons; application of the transmitter
Method: Antibodies: Primary antibody: rabbit anti-pan α1 binds Ca channel (1:200 dilution, [1.5 μg/ml) [Alomone Labs; Jerusalem, Israel]. Secondary antibodies: (1:200 dilution, 10 μg/ml): tetramenthylrhodamine conjugated goat anti-rabbit IgG (H+L) [Molecular Probes; Eugene, OR]
Dorsal root ganglia were dissected from 11 to 12 day old embryos, incubated for 30 min in saline containing nominal Ca 2^+ and Mg 2^+, and 0.05% collagenase (type A, Boehringer Mannheim). Ganglia were dissociated mechanically into single cells by trituration in culture medium containing Dulbecco's modified Eagle's medium supplemented with 10% horse serum, 5% chicken embryo extract, penicillin, streptomycin, glutamine, and nerve growth factor. Cells were plated at a density of ˜50,000 cells/collagen-coated 35 mm tissue culture dish and studied between 1 and 3 days in vitro.
Immunohistochemistry: Cultures grown on poly-L-lysine cover glass slips were exposed to saline or 100 mM NE (norepinephrine), fixed and permeabilized in methanol at −20° C. for 15-minutes or 20 second (for residual experiment) followed by 3×5-min washes in PHEM Buffer [60 mM PIPES, 25 mM HEPES, 10 mM EGTA, 2 mM MgCl2, pH 6.9]. Cells were alternatively fixed with 4% paraformaldehyde in PHEM buffer, pH 6.9 for 20-min, washed 3×3-min with PHEM buffer and permeabilization with 0.1% Triton X-100/PHEM buffer for 3-min. Blocking was performed using 5% BSA in PHEM Buffer for 1-h at 4 C. Following overnight incubation with primary antibody in 1% BSA and 1% normal goat sera in PHEM Buffer at 4 C. After washes with PHEM Buffer, cover slips were incubated with fluorophore-conjugated secondary antibodies in 1% BSA PHEM Buffer for 1.5 hours at room temperature in the dark. […]
Images of fixed cells were obtained with a pinhole setting of 0.95 using a UV 100× 1.4NA oil Leica objective lens and an optical zoom between 1.4 and 2× at slow acquisition speed with 4× frame averaging accumulation. The number of sections was calculated by the Leica TCS software based on acquisition of sections at 240 nm intervals in the Z-plane. […]

[1] = system: cell-surface myc-L1-CAM on ND-7 cells; experiment: L1-CAM diffusion behavior assay: movement of 9E10-coated beads bound to myc-L1-CAM (video microscopy, laser tweezers); type: cell-based, rat; conditions: ND-7 cells expressing wild-type myc-L1-CAM; cytochalasin D 2 μM, nocadazole 1 μM, NGF 100 ng/mL 1 hour
Excerpt: Video microscopy, laser tweezers, and data analysis: The 9E10-coated latex beads were then placed and held with an optical gradient laser trap on the surface of transfected cells at a distance of between 0.5 and 1 μm from the leading edge for 2 seconds. The laser trap consisted of a Titanium Sapphire (Coherent; model 890) solid state laser pumped by a 5 W frequency-doubled Neodymnium Vanadate laser (Verdi; Coherent) and tuned to 800 nm. This wavelength was previously determined to generate the fewest heating artifacts in live cells (Svoboda and Block. Biomol Struct 1994;23:-247-285 and Choquet et al. Cell 1997;88:39-48). Laser power at the output of the Titanium Sapphire laser was 40 mW, and prepared beads were placed and held on the cell surface for less than 3 sec to further reduce the possibility of heating artifacts. Laser light was introduced through the television port of the Axiovert microscope.
Video images of bead movement were collected using a newvicon camera (Dage MTI; VE-1000N) and background subtraction and contrast enhancement were carried using a Hamamatsu Argus 20 image processor. Raw data were recorded to sVHS video tape for subsequent analysis. Video recordings were subsequently digitized onto an Intel processor-based computer running the Isee imaging software (Isee Imaging) running under Red Hat Linux 7.1. Quantification of bead movement was carried out in Isee. Diffusional analysis was carried out using a custom spreadsheet in Excel (Microsoft). This spreadsheet carries out 4 operations: first, it scales the data from pixel measurements to nm using the appropriate scale factor (determined by the magnification used to observe bead movement); second, it subtracts the first point from all of the data, to set the origin at 0,0 (x,y coordinates); third, it rotates (in two dimensional space) the data around the origin so that the orientation of the cell is the same from trial to trial (here, the data was set so that the cells all face to the left); and fourth, the spreadsheet calculates the mean square displacement (MSD) data which are used to calculate diffusion coefficients and bead velocity. Individual traces were scored blind for classes of behavior. Statistical analysis of percentages of trials was carried out using chi-squared analysis or a Fisher's exact probability test.
MSD values were calculated as previously described (see Qian et al, 1991; Biophysical Journal 60 p910). For these calculations, the squared displacement (a^2+b^2; where a=xn+t−xn, b=a=yn+t−yn for any two points separated by time t) of the bead was calculated between two points in the data set. The mean of the squared displacements was calculated for each time interval t=1 to m, where m is the time interval that equals 10% of the length of the data set. The mean displacement was plotted with respect to time giving a curve with a linear or quadratic shape, depending on the behavior of the bead. Diffusion rates and velocity were calculated by fitting the curve with the equation MSD=4Dt+v^2t^2, where D is the diffusion coefficient, v is the velocity and t is time. D and v were calculated for each bead independently and presented as averages or as individual values, as described in each case.
Cell culture and transfection: ND-7 cells (rat neuroblastoma/DRG hybrid cells) were plated and transfected with pMyc-L1-CAM, pMyc-L1-CAM-YF, pMyc-L1-CAM-YH, or pMyc-L1-CAM-STOP expression constructs as described in Example 3, supra.
In some instances, ND-7 cells transfected with pMyc-L1-CAM were treated with the cytoskeletal inhibitor cytochalasin D (2 μM; Sigma) or nocadazole (1 μM; Sigma). For these experiments treatment with DMSO (0.01%) vehicle alone served as the negative control.
In some instances, ND-7 cells transfected with pMyc-L1-CAM were treated with neural growth factor (NGF) to stimulate phosphorylation of tyrosine 1229 (Y1229) of the L1-CAM cytoplasmic domain, and thereby inhibit ankyrin binding. […]

[2] = system: secretion of Substance P from DRG neurons; experiment: Substance P secretion, single-cell immunoblot assay; type: cell-based, chick; conditions: baclofen in addition to AP-YF peptide
Method: Secretion Assay: Secretion of substance P was analyzed using the single-cell immunoblot method adapted from Huang and Neher (Huang, L. Y., Neher, E. (1996) Neuron. 17, 135-45.). Briefly, polyvinylidene difluoride transfer membranes (Immobilon P brand from Millipore) were cut to […] and placed in a 6-well plate. Membranes were pre-wetted with methanol for 20 s, rinsed with distilled water and allowed to equilibrate in test solution for >1 hr. In parallel, DRG cells plated were incubated with media containing AP-YF or AP-Scr (1.4 μg/ml) for 1 hour. This media was removed, and replaced with 70 μl of test solution. The membranes were then placed on top of the cells, and allowed to incubate at 37° C. in a humidified CO2 incubator for 30 min. The membranes were then carefully removed from the cells and allowed to dry completely and fixed with powdered paraformaldehyde at 80° C. for 1 hr. Fixed membranes were rinsed in PBS (1 mM KH2PO4, 10 mM Na2HPO4, 137 mM NaCl, 2.7 mM KCl) containing 1% Triton X-100 (PBS-T) to remove excess paraformaldehyde, and blocked with PBS-T containing 3% fetal bovine serum (FBS) for 30 min at room temperature. The membranes were incubated with anti-substance P antibody (Santa Cruz) at 1:200 dilution in PBS-T with 1% FBS overnight in 37° C. incubator. The next day the membranes were developed with a peroxidase/diamninobenzidine (DAB) reaction using the ABC staining kit from Santa Cruz Biotechnology. Images were taken using a CCD camera, and analyzed using Photoshop and NIH image software. Data were plotted by assigning an upper and lower limit of gray values and plotting % of cells at a range within those limits. By plotting graphs as % of cells in a dynamic range, multiple experimental runs were pooled.

[3] = target: T1, L1-CAM-ankyrin interactions (Homo sapiens, UniProt Q01484); experiment: Ankyrin recruitment assay: ankyrinB co-localization with L1-CAM at the membrane of transfected 293 cells; type: cell-based; conditions: 50 ng/mL EGF or 100 ng/mL NGF for 1 hour
T1 construct: expressed in transfected cells; host or cells: human kidney 293 cells
Method: Cell culture aid transfection: Human kidney 293 cells were cultured in DMEM medium (Gibco) supplemented with penicillin, streptomycin, L-glutamine, and 10% fetal bovine serum (Hyclone). The pMyc-L1-CAM or pL1-CAM-GFP expression constructs were transfected into cultured human kidney 293 cells using Lipofectamine plus (Invitrogen) according to manufacturer instructions. Cells were cultured for 24-48 hours and then used, or cultured continuously in the presence of 0.5 μg.mL G418 (Gibco) to select for stably transfected cells lines, to generate stable pooled lines of L1-CAM-expressing cells.
In some instances, transfected 293 cells were treated with neural growth factor (NGF) or epidermal growth factor (EGF) to stimulate phosphorylation of tyrosine 1229 (Y1229) of the L1-CAM cytoplasmic domain, and thereby inhibit ankyrin binding. In these cases, cells were treated with 50 ng/mL EGF (Gibco) or 100 ng/mL NGF (Gibco) for 1 hour prior to the assay. […]
Ankyrin and L1-CAM were detected by indirect immunofluorescence in double-labeled confocal sections through cell aggregates to permit the visualization of L1 and ankyrinB at the cell membrane. Expression of myc-L1-CAM was detected using a polyclonal anti-L1-CAM rabbit antibody. […] Ankyrin was detected using a monoclonal anti-ankyrinB mouse antibody (BD PharMingen). […]
Quantification of ankyrin immunolocalization: Confocal micrographs were then used to quantify the degree of ankyrin localization to the cell membrane of myc-L1-CAM expressing cells. Images were analyzed using ImageJ (NIH) under Macintosh OSX. The method for quantifying ankyrinB localization to the membrane uses densitometry of a line scan perpendicular to and crossing a cell-cell junction. […]
The densitometry intensity profile of the scanned line was used to determine a minimum ankyrinB signal for comparison to the value of the ankyrinB signal at the point where the maximum signal in the L1-CAM channel occurs. […] Minima were determined from the regions of the line overlapping the cytoplasm of either of the two cells. […]

[4] = system: cell-surface myc-L1-CAM on ND-7 cells; experiment: Cytoskeleton attachment assay: resistance of 9E10 bead-myc-L1-CAM complexes to lateral displacement by laser trap; type: cell-based, rat; conditions: 2 μM cytochalasin D; ND-7 cells expressing myc-L1-CAM
Method: Cell culture and transfection: ND-7 cells (rat neuroblastoma/DRG hybrid cells) were cultured as described in Example 2. 24 hours prior to transfection, cultured cells were plated on coverslips coated with poly-D-lysine and laminin sealed to the bottom of 35 mm culture dishes (Mattek Corp.). Plated cells were transfected with the pL1-CAM or pMyc-L1-CAM expression constructs using Lipofectamine plus (Invitrogen) according to manufacturer's instructions. Transfected cells were cultured for 24-36 hours, and then used for live microscopy. For laser trap and video microscopy, the medium was replaced with phenol red-free serum-free L15 medium (air buffered) with 20 mM HEPES, 0.1% BSA, 0.5% ovalbumin. Cells transfected with the bicistronic expression constructs express a single mRNA encoding both the myc-L1-CAM proteins and EGFP, such that transfected cells were identified by EGFP fluorescence. […]
Video microscopy, laser tweezers, and data analysis: The 9E10-coated latex beads were then placed and held with an optical gradient laser trap on the surface of transfected cells at a distance of between 0.5 and 1 μm from the leading edge for 2 seconds. […] This wavelength was previously determined to generate the fewest heating artifacts in live cells (Svoboda and Block. Biomol Struct 1994;23:-247-285 and Choquet et al. Cell 1997;88:39-48). […]

T1 sequence (Q01484 whole entry): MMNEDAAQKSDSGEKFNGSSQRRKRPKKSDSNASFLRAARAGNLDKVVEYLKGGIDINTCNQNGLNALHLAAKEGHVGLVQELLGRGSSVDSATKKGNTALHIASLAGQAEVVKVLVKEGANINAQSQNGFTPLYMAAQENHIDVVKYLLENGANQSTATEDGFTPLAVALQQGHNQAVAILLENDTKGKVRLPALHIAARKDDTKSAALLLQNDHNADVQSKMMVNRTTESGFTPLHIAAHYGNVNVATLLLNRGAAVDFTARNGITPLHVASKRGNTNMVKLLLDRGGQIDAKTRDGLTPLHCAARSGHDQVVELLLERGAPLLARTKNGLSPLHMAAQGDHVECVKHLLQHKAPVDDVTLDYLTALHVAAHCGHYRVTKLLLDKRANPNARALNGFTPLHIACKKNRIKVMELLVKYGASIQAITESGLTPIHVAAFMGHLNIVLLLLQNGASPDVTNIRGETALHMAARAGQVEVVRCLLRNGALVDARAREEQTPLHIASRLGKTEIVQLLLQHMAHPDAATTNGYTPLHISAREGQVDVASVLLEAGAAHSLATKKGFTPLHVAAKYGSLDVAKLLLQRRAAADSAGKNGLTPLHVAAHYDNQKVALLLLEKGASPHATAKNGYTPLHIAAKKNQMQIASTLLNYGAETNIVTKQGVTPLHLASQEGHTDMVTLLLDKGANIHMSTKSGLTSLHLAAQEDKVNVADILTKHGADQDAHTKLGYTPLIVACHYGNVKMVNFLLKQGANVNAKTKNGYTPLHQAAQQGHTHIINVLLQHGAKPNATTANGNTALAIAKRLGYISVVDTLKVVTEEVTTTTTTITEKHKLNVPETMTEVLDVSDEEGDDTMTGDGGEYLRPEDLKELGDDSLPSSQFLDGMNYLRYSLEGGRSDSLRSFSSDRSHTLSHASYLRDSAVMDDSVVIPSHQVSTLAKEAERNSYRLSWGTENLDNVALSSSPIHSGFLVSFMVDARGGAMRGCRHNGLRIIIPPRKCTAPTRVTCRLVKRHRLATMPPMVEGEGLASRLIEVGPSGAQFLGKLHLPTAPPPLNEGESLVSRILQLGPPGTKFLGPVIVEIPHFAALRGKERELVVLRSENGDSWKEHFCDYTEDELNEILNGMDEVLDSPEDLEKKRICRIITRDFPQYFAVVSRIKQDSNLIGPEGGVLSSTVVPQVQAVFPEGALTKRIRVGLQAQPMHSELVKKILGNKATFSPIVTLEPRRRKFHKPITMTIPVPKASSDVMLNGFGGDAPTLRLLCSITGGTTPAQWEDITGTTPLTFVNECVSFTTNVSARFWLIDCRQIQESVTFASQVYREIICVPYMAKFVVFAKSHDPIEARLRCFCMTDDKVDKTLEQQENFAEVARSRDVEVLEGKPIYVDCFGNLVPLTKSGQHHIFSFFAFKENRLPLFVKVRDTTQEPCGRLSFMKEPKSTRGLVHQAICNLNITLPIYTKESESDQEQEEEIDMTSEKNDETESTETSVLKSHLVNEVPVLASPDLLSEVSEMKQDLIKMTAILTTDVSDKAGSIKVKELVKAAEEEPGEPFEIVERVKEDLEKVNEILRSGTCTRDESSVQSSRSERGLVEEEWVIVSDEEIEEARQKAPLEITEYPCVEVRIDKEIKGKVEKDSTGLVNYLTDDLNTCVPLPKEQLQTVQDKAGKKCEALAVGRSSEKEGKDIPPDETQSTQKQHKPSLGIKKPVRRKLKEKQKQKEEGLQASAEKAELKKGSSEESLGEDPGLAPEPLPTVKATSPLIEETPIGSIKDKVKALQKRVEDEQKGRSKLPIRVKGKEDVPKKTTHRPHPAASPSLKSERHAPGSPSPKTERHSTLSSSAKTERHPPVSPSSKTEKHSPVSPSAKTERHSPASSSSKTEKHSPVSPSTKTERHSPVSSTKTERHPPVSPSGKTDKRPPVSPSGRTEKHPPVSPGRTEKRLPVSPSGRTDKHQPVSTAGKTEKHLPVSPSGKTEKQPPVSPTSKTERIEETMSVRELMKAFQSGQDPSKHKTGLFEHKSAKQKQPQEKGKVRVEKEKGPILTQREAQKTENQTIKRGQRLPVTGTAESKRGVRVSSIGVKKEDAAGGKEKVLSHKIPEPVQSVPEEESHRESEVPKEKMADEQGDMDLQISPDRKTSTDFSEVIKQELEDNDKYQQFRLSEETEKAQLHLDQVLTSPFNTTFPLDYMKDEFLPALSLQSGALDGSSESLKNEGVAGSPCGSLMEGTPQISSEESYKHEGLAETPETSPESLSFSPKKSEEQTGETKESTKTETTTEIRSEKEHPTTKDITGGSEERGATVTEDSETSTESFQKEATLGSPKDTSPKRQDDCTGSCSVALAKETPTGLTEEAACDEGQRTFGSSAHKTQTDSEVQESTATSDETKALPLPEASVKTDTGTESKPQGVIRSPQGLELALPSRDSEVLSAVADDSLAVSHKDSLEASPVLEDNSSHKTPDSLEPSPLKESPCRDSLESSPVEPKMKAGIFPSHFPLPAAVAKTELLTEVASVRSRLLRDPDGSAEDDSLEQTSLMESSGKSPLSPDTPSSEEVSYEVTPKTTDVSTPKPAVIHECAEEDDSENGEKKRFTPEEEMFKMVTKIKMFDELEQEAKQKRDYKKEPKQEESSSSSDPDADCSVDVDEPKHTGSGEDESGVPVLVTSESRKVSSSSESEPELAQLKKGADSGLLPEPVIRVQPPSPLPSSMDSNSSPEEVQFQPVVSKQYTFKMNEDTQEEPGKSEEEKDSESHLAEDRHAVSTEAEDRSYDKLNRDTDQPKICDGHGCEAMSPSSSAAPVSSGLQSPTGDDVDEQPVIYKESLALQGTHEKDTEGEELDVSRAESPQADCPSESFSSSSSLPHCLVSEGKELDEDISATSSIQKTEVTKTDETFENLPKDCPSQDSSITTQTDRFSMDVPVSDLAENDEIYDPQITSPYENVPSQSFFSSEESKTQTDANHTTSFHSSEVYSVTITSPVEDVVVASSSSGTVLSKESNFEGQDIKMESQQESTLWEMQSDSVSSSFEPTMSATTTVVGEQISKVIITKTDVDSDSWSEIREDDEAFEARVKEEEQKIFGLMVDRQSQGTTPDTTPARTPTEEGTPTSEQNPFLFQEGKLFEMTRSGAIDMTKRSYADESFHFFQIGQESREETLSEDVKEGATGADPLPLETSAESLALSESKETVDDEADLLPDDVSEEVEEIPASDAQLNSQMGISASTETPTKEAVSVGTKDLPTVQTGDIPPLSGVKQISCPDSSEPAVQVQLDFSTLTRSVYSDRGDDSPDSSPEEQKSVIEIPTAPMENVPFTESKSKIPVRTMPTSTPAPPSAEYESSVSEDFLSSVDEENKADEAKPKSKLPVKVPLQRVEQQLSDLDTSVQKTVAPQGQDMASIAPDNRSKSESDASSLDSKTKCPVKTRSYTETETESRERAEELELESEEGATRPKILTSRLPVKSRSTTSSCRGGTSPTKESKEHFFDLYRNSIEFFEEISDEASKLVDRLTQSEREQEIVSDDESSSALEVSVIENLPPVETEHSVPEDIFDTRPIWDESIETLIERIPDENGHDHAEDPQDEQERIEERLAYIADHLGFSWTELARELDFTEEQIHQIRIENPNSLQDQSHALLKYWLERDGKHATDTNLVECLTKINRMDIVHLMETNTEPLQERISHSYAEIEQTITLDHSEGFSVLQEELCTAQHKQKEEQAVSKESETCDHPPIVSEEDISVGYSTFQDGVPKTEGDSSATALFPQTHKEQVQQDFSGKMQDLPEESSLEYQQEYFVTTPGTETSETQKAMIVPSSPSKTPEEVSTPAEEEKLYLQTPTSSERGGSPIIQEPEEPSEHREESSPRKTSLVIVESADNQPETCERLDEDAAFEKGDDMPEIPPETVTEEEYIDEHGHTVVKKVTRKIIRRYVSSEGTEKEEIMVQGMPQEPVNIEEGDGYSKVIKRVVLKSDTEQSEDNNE

Molecule | % of trials diffusing [1] | % of trials retrograde [1] | % of trials stationary [1] | further results
NC[C@H](O)c1ccc(O)c(O)c1 (racemic) [norepinephrine, Norepinephrine] |  |  |  | punctate distribution of Cav2.2 channels in the membrane (Cav2.2 channels): rapidly (within 2s) reduced
COC(=O)Nc1nc2cc(C(=O)c3cccs3)ccc2[nH]1 [nocadazole] | 25% | 43.75% | 31.25% | 
NCC(CC(=O)O)c1ccc(Cl)cc1 (racemic) [Baclofen, 4-Amino-3-[4-chlorophenyl] butanoic acid] |  |  |  | DRG neurons secreting low levels of Substance P [2]: 75%
EGF: epidermal growth factor (Gibco) |  |  |  | ankyrin B colocalization with L1-CAM at the cell membrane [3]: significant reduction; also recorded: inhibited ankyrin membrane localization
C=C1[C@@H](C)[C@H]2[C@H](Cc3ccccc3)NC(=O)[C@]23[C@H](OC(C)=O)/C=C/[C@@](C)(O)C(=O)[C@@H](C)C/C=C/[C@H]3[C@@H]1O [cytochalasin D] | 83.3% | 0% | 16.7% | bead rigidity on the cell surface (resistance to lateral displacement) [4]: entirely abolished
